Key:
[1] = tested on: DEL-1; conditions: versus resolvin D1 or DHEA; Non-Patent Document 1; cited from earlier work
[2] = tested on: iCell mesenchymal stem cells; assay: bone nodule measurement in mesenchymal stem cells induced from human iPS cells; format: cell-based; conditions: 10 μg/mL for each; 15 days; bone differentiation medium
Procedure: iCell (registered trademark) mesenchymal stem cells (iCell (registered trademark) MSCs) (#01279, manufactured by Fujifilm Corporation) (1×10^4 cells/mL) obtained by inducing human mesenchymal stem cells from iPS cells, were cultured in α-MEM and a bone differentiation medium (containing 50 μg/mL ascorbic acid and 10 mM β-glycerol 2-phosphate). Ethanol (final concentration 0.1% by mass), or erythromycin, clarithromycin, or azithromycin (10 μg/mL for each) was added to the medium. The medium was exchanged every 3 days, and after 15 days, the cells were stained with Alizarin red S, followed by performing of bone nodule measurement. The results are shown in FIG. 18 (stained images) and FIG. 19 (graph showing the proportion of bone nodules). In FIG. 18 and FIG. 19, the ethanol (final concentration 0.1% by mass)-added group is a control. In FIG. 19, the symbol * indicates p≤0.05, the symbol ** indicates p≤0.01, the symbol *** indicates p≤0.001, and the symbol **** indicates p≤0.0001.

[3] = tested on: experimental periodontitis model mice; assay: bone regeneration in experimental periodontitis model mice (teeth ligated with silk threads); format: in vivo, mouse
From the text: Experimental periodontitis model mice in which teeth are ligated with silk threads are useful models for inflammatory bone destruction research because inflammations and bone resorption occur in about 10 days after the ligation. The above-described experimental periodontitis models were produced by using 6-week-old wild-type mice (N=8, male C57BL/6N mice, manufactured by CLEA Japan, Inc.), 22-month-old aging mice (N=4, male C57BL/6N mice, manufactured by CLEA Japan, Inc.), and 6-week-old DEL-1-deficient mice (N=8, male C57BL/6N mice (manufactured by CLEA Japan, Inc.), a method for producing the deficient mice was as described in Non Patent Document 1), the silk threads were removed 10 days after the ligation, a remission phase of inflammation of 5 days passed, and in the wild-type mice, new bone formation was recognized at the site of resorbed bone defect while no repair mechanism of the periodontal tissue by DEL-1 was recognized.
The experimental periodontitis models described in Example 1 were produced by using 6-week-old wild-type mice (N=8, male C57BL/6N mice, manufactured by CLEA Japan, Inc.), 22-month-old aging mice (N=4, male C57BL/6N mice, manufactured by CLEA Japan, Inc.), and 6-week-old DEL-1-deficient mice (N=8, male C57BL/6N mice (manufactured by CLEA Japan, Inc.), a method for producing the deficient mice was as described in Non Patent Document 1), the silk threads were removed 10 days after the ligation to experimentally induce periodontitis, subsequently a bone regeneration period of 5 days was provided, and then the amount of regeneration of resorbed bone was measured using a stereomicroscope and image measurement software (manufactured by Nikon Corporation). Erythromycin (10 mg/kg) and ethanol (final concentration 0.1% by mass) were intraperitoneally administered once after the removal of the silk threads. In addition, DEL-1 (1 μg) and Fc control (0.84 μg) were directly inoculated into the gingiva after the removal of the silk threads. The results are shown in FIG. 3 (left: wild-type mice, right: DEL-1-deficient mice) and FIG. 4 (aging mice).
Next, the experimental periodontitis model described in Example 1 was produced by using 22-month-old aging mice (N=4, male C57BL/6N mouse, manufactured by CLEA Japan, Inc.), the silk threads were removed 10 days after the ligation to experimentally induce periodontitis, subsequently a bone regeneration period of 5 days was provided, and the amount of regeneration of resorbed bone was measured using a stereomicroscope and image measurement software (manufactured by Nikon Corporation). Erythromycin (ERM) (20 mg/kg), azithromycin (AZM) (20 mg/kg), clarithromycin (CLM) (20 mg/kg), and ethanol (final concentration 0.1% by mass) as a control were intraperitoneally administered once after the removal of the silk threads. […] In addition, there was no difference in the amount of bone regeneration between the macrolide antimicrobial agent-administered groups.

[4] = tested on: osteoblasts; assay: bone nodule measurement in osteoblasts (Alizarin red S); format: cell-based, mouse; conditions: for formation of bone nodules (FIG. 1): erythromycin 10 μg/mL
Procedure: Next, from the cranial bones of 3-day-old wild-type mice (N=6, male C57BL/6N mice, manufactured by CLEA Japan, Inc.) and 3-day-old DEL-1-deficient mice (N=6, male C57BL/6N mice (manufactured by CLEA Japan, Inc.), a method for producing the deficient mice was as described in Non Patent Document 1), osteoblasts were isolated by allowing 0.1% by mass of type 1 collagenase and 0.2% by mass of dispase to act at 37° C. for 20 minutes, and the cells were cultured in α-MEM and a bone differentiation medium (containing 50 μg/ml ascorbic acid and 10 mM β-glycerol 2-phosphate). Ethanol (final concentration 0.1% by mass) and erythromycin (10 μg/mL) were added into the medium in which the osteoblasts (1×10^4 cells/mL) derived from the wild-type mice or the DEL-1-deficient mice were cultured. The medium was exchanged every 3 days, and after 15 days, the cells were stained with Alizarin red S, followed by performing of bone nodule measurement.
Next, the proportion (%) of bone nodules with respect to the observation region in the above-described osteoblasts was calculated from microscopic images by using image processing software (NIH Image). In addition, RNA was extracted from each of the osteoblasts by using an RNeasy Kit (manufactured by QIAGEN NV), subsequently cDNA was synthesized by using a cDNA synthesis kit (manufactured by Thermo Fisher Scientific, Inc.), and the relative expression levels of RUNX2 mRNA, Sp7 mRNA, and Bglap mRNA, which are important for bone regeneration, were checked by an RT-PCR method (Quantstudio3, Thermo Fisher Scientific, Inc.). Regarding primers, designed primers manufactured by Thermo Fisher Scientific, Inc. were used. The Assay IDs of the primers used are shown below.
(Bone regeneration-inducing effect 2 by various macrolide antimicrobial agents) From the cranial bones of 3-day-old wild-type mice (N=6, male C57BL/6N mice, manufactured by CLEA Japan, Inc.), osteoblasts were isolated by allowing 0.1% by mass of type 1 collagenase and 0.2% by mass of dispase to act at 37° C. for 20 minutes, and the cells were cultured in α-MEM and a bone differentiation medium (containing 50 μg/ml ascorbic acid and 10 mM β-glycerol 2-phosphate). Ethanol (final concentration 0.1% by mass), or erythromycin, clarithromycin, or azithromycin (10 μg/mL each) was added into the medium in which the osteoblasts (1×10^4 cells/mL) derived from the wild-type mice were cultured. The medium was exchanged every 3 days, and after 15 days, the cells were stained with Alizarin red S, followed by performing of bone nodule measurement. The results are shown in FIG. 11 In FIG. 11, the symbol * indicates p<0.05, and the symbol ** indicates p<0.01. In addition, the control is an ethanol (final concentration 0.1% by mass)-added group.

## CC[C@H]1OC(=O)[C@H](C)[C@@H](O[C@H]2C[C@@](C)(OC)[C@@H](O)[C@H](C)O2)[C@H](C)[C@@H](O[C@@H]2O[C@H](C)C[C@H](N(C)C)[C@H]2O)[C@](C)(O)C[C@@H](C)C(=O)[C@H](C)[C@@H](O)[C@]1(C)O [erythromycin]
[1]
  DEL-1 induction potency relative to resolvin D1 or DHEA: about three
[2]
  formation of bone nodules (FIG. 18, FIG. 19): the formation of bone nodules was recognized
[3]; 6-week-old wild-type mice, erythromycin 10 mg/kg intraperitoneally once, 5 days regeneration period
  bone regeneration (FIG. 3): bone regeneration was recognized irrespective of the presence or absence of the administration of erythromycin
[3]; 22-month-old aging mice, 20 mg/kg intraperitoneally once, 5 days regeneration period
  bone regeneration (FIG. 9): bone regeneration was recognized
[3]; 22-month-old aging mice, erythromycin 10 mg/kg intraperitoneally once or DEL-1 1 μg into the gingiva, 5 days
  bone regeneration (FIG. 4): bone regeneration was recognized
[3]; DEL-1-deficient mice, erythromycin 10 mg/kg intraperitoneally once or DEL-1 1 μg into the gingiva, 5 days
  bone regeneration (FIG. 3): bone regeneration was not recognized
[4]; osteoblasts derived from DEL-1-deficient mice
  proportion of bone nodules (FIG. 2): an increase in the proportion of bone nodules was not recognized
[4]; osteoblasts derived from DEL-1-deficient mice, 15 days
  formation of bone nodules (FIG. 1): the formation of bone nodules was not recognized
[4]; osteoblasts derived from wild-type mice
  proportion of bone nodules (FIG. 2): significant increases in the proportion of bone nodules was recognized
[4]; osteoblasts derived from wild-type mice, 10 μg/mL each, 15 days
  formation of bone nodules (FIG. 11): the formation of bone nodules was recognized
[4]; osteoblasts derived from wild-type mice, 15 days
  formation of bone nodules (FIG. 1): the formation of bone nodules was recognized

— patent US20240382508A1, “REGENERATIVE AGENT FOR BONE TISSUE AND LUNG TISSUE, AND PHARMACEUTICAL COMPOSITION FOR REGENERATING BONE TISSUE AND LUNG TISSUE” (NIIGATA UNIVERSITY, priority 2021, published 2024)
